Data: patent publication US20130017163A1, “HALOGENATED PHENOLS FOR DIAGNOSTICS, ANTIOXIDANT PROTECTION AND DRUG DELIVERY” (priority 2011, published 2013)
One block for each molecule: values may come before it.

What was measured:
[1] = tested on: sites of the wound or injury; settings: mice with small injuries or wounds (cuts, scratches); data not shown
spontaneous tumors = settings: 10 mg by gavage; X-ray imaging about two hours after; mice with spontaneous tumors; same mice before treatment showed no foci
Excerpt: As described above, oxidative foci or tumors may be identified by X-ray radiographic imaging of animals following administration of an indigogenic compound of the present invention. The radio-opaque indigo-like product formed and deposited with residence time in FROS-containing tumor tissues may then be detected.
In this example, female C3H/HeN mice were obtained as multiparous retired breeders (i.e., after 3 to 4 litters) that were positive for a mammary tumor virus. See, e.g., Sellitti, D. F., Tseng, Y-C., and Latham, K. R., “Effect of 3,5,3′-Triiodo-L-thyronine on the Incidence and Growth Kinetics of Spontaneous Mammary Tumors in C3H/HeN Mice,” Cancer Research, 41: 5015-19 (1981), the entire contents and disclosure of which are incorporated herein by reference. Mice showing spontaneous tumors were given 10 mg of 5-Iodo-Indoxyl-3′,5′-Diiodo-4′-hydroxy ether substrate (product of Example 4) by gavage. These mice were then subjected to X-ray imaging of the tumors about two hours after being fed the iodo-indigogenic compound. […] When developed, the X-ray film appears dark in areas where more transmission occurs and light in areas where less transmission occurs.

[2] = Cleavage of C—C bond during oxidative dehalogenation reaction; assay type: physicochemical; settings: oxidative or free radical-mediated dehalogenation
Excerpt: It has also been discovered that other types of bonds or linkages may also be cleaved by oxidative or free radical-mediated dehalogenation of the phenol ring. For example, as described herein, it has now been observed that a carbonyl linkage, a nitrogen linkage, a sulfinyl linkage and possibly a C—C bond on the phenol ring may also be cleaved by the oxidative dehalogenation reaction. These bonds are also considered stable, and their cleavage in connection with the dehalogenation reaction is surprising as well. One caveat with the C—C bond or linkage is that depending on the particular starting compound structure and the substituents or groups attached to the halogenated phenol ring via the C—C bond, the C—C bond or linkage may or may not be generally cleaved during or following the dehalogenation reaction (see below). […] However, other compounds do become cleaved. It is important to note that whether a C—C bond of a particular starting compound is “cleavable,” or becomes cleaved, may not be all-or-nothing (i.e., the C—C bond may be considered non-cleavable even though a small or minute amount of cleavage may occur, and vice versa). Thus, the amount or percentage of cleavage may be partial with the alternatively cleaved or non-cleaved product being possibly undetected or minute. […]

[3] = Spontaneous ether cleavage and deiodination in buffered aqueous solution exposed to sunlight; assay type: physicochemical; settings: about 1 mM in carbonate buffer (pH 8.0), sunlight for about one hour
Excerpt: In contrast to reductive deiodination, spontaneous dehalogenation (e.g., deiodination) of a halogentated phenol ring in the presence of an oxidizing agent(s) and/or free radical(s) with cleavage of a chemical linkage, such as an ether linkage, etc., between the phenol ring and a conjugated compound has not been described. According to the present invention, cleavage of the ether linkage between the aromatic rings of thyroid hormone may form visibly colored quinone and iodine-containing products in buffered aqueous solutions in vitro, and this ether cleavage reaction may be accelerated under basic pH conditions and with exposure to ionizing radiation or light. These conditions favor the increased formation of oxidizing agents and/or free radicals, which are believed to promote the reaction. […] A quinone and an iodotyrosine product are also formed by cleavage of the ether linkage during the reaction. According to embodiments of the present invention, a spontaneous reaction of dehalogenation and cleavage of a chemical bond is proposed for the targeted delivery and release of a drug compound at or to sites of inflammation or disease. This spontaneous reaction is further proposed as a basis for scavenging free radicals and/or oxidative agents (FROS) as well as for the creation of a detectable compound(s) that may be used for diagnostic purposes.

SMILES: Oc1c(I)cc(Oc2c[nH]c3ccc(I)cc23)cc1I [Example 4, 5-Iodo-Indolyl-3′,5′-Diiodo-4′-hydroxyl-p-Phenol Ether]
X-ray detection at sites of wound or injury [1]: strong detection was observed at the sites of the wound or injury
radio-opaque tumor regions or foci by X-ray (spontaneous tumors): radio-opaque tumor regions or foci

cleavage of C—C bond with the dehalogenation reaction [2]: generally not to be cleaved
SMILES: N[C@@H](Cc1ccc(O)c(I)c1)C(=O)O [MIT, 3-iodo-4-hydroxy-L-phenylalanine]

SMILES: N[C@@H](Cc1cc(I)c(Oc2cc(I)c(O)c(I)c2)c(I)c1)C(=O)O [thyroxine]
cleavage of ether linkage with iodide release [3]: the ether linkage is broken spontaneously
